Tests used:
GPR17 [1] = molecular target: T1, GPR17 (Homo sapiens, UniProt Q13304); assay: cAMP accumulation functional assay (HTRF, Schild analysis); assay type: cell-based; design: host or cells: Flp-In T-REx CHO; settings: CHO hGPR17 cells, Schild analysis vs MDL29,951, 5 μM forskolin, read-out: cAMP assay pA2 (converted)
Method in brief: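 CHO Flp-In T-REx cells with doxycycline-induced human GPR17 were preincubated 30 min at room temperature in HBSS-HEPES pH 7.4 with antagonist. cAMP was then measured by HTRF after 60 min. MDL29,951 pEC50 shifts gave dose ratios, and Schild analysis gave pA2.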

GPR17 [2] = molecular target: T1, GPR17; assay: Calcium mobilization functional assay (GPR17 Ca2+ assay); assay type: cell-based; design: host or cells: Flp-In T-REx CHO; settings: CHO hGPR17 cells, inhibition of 50 nM MDL29,951, Calcium 5 dye, FLIPR; read-out: Ca2+ assay pIC50 (converted)
Method in brief: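 Flp-In T-REx CHO cells stably expressing human GPR17, doxycycline-induced (1 μg/mL, 16-20 h), loaded 60 min with Calcium 5 dye. Inhibition by varying test-compound concentrations of the 50 nM MDL29,951 agonist response was read by fluorescence over time at room temperature. pIC50 came from 4-parameter logistic fitting.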

T1 sequence (Q13304 whole entry): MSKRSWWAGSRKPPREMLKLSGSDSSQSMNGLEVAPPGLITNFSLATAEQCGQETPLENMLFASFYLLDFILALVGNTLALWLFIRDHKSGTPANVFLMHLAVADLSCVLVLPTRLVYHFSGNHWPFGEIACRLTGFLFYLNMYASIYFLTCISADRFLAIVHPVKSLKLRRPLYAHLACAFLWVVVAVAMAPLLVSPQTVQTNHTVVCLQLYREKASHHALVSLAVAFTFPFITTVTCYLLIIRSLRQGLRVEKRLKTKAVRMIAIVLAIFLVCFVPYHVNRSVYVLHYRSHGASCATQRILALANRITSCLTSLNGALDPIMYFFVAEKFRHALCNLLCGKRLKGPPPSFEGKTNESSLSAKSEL

Row | Structure (SMILES) | Kb (GPR17 [1]) [nM] | IC50 (GPR17 [2]) [nM]
1 | COc1ccc2c(S(=O)(=O)Nc3cc(F)c(C#N)cc3F)c[nH]c2c1 [Compound I-291, N-(4-cyano-2,5-difluorophenyl)-6-methoxy-1H-indole-3-sulfonamide] | < 3.16 | < 3.16
2 | O=S(=O)(Nc1ccc(I)cc1F)c1c[nH]c2nc(Br)ccc12 [Compound I-104, 6-bromo-N-(2-fluoro-4-iodophenyl)-1H-pyrrolo[2,3-b]pyridine-3-sulfonamide] | < 3.16 | < 3.16
3 | [N-]=[N+]=Nc1ccc(NS(=O)(=O)c2c[nH]c3cc(Cl)ccc23)c(F)c1 [Compound I-241, N-(4-azido-2-fluorophenyl)-6-chloro-1H-indole-3-sulfonamide] | 3.16 to 31.6 | 3.16 to 31.6
4 | O=S(=O)(Nc1cccc2n[se]nc12)c1c[nH]c2cc(Cl)ccc12 [Compound I-142, N-(2,1,3-benzoselenadiazol-4-yl)-6-chloro-1H-indole-3-sulfonamide] | < 3.16 | < 3.16
5 | O=[N+]([O-])c1ccc(NS(=O)(=O)c2c[nH]c3cc(Cl)ccc23)cc1 [Compound I-39, 6-chloro-N-(4-nitrophenyl)-1H-indole-3-sulfonamide] | > 31.6 | 3.16 to 31.6
6 | O=C1OCc2cc(F)c(NS(=O)(=O)c3c[nH]c4nc(Cl)ccc34)cc21 [Compound I-284, 6-chloro-N-(6-fluoro-3-oxo-1,3-dihydro-2-benzofuran-5-yl)-1H-pyrrolo[2,3-b]pyridine-3-sulfonamide] | > 31.6 | 3.16 to 31.6
7 | O=S(=O)(Nc1ncc(Cl)cc1F)c1c[nH]c2c1ccc1ccccc12 [Compound I-191, N-(5-chloro-3-fluoropyridin-2-yl)-1H-benzo[g]indole-3-sulfonamide] | < 3.16 | 3.16 to 31.6
8 | N#CCOc1cc(F)c(NS(=O)(=O)c2c[nH]c3c2ccc2cccnc23)cc1F [Compound I-360, N-[4-(cyanomethoxy)-2,5-difluorophenyl]-1H-pyrrolo[3,2-h]quinoline-3-sulfonamide] | < 3.16 | < 3.16
9 | O=S(=O)(Nc1cccc2c1OC(F)(F)O2)c1c[nH]c2cc(Cl)ccc12 [Compound I-123, 6-chloro-N-(2,2-difluoro-1,3-benzodioxol-4-yl)-1H-indole-3-sulfonamide] | 3.16 to 31.6 | 3.16 to 31.6
10 | O=S(=O)(Nc1cccc2nsnc12)c1c[nH]c2nc(Br)ccc12 [Compound I-78, N-(2,1,3-benzothiadiazol-4-yl)-6-bromo-1H-pyrrolo[2,3-b]pyridine-3-sulfonamide] | 3.16 to 31.6 | < 3.16
11 | O=S(=O)(Nc1cc(F)c(I)cc1F)c1c[nH]c2cc(Cl)ccc12 [Compound I-308, 6-chloro-N-(2,5-difluoro-4-iodophenyl)-1H-indole-3-sulfonamide] | < 3.16 | < 3.16
12 | COc1cnc(NS(=O)(=O)c2c[nH]c3cc(Cl)ccc23)c(OC)c1 [Compound I-264, 6-chloro-N-(3,5-dimethoxypyridin-2-yl)-1H-indole-3-sulfonamide] | > 31.6 | > 31.6
13 | N#CCCc1cc(F)c(NS(=O)(=O)c2c[nH]c3c2ccc2cccnc23)cc1F [Compound I-362, N-[4-(2-cyanoethyl)-2,5-difluorophenyl]-1H-pyrrolo[3,2-h]quinoline-3-sulfonamide] | < 3.16 | 3.16 to 31.6
14 | O=S(=O)(Nc1ccc(I)cc1F)c1c[nH]c2cc3c(cc12)OCO3 [Compound I-44, N-(2-fluoro-4-iodophenyl)-5H-[1,3]dioxolo[4,5-f]indole-7-sulfonamide] | 3.16 to 31.6 | > 31.6
15 | N#CCc1cc(F)c(NS(=O)(=O)c2c[nH]c3c2ccc2cccnc23)cc1F [Compound I-361, N-[4-(cyanomethyl)-2,5-difluorophenyl]-1H-pyrrolo[3,2-h]quinoline-3-sulfonamide] | < 3.16 | < 3.16
16 | N#Cc1cc(F)c(NS(=O)(=O)c2c[nH]c3c2ccc2ccccc23)cc1F [Compound I-151, N-(4-cyano-2,5-difluorophenyl)-1H-benzo[g]indole-3-sulfonamide] | < 3.16 | < 3.16
17 | N#Cc1ccc(NS(=O)(=O)c2c[nH]c3c(Br)c(Cl)ccc23)c(F)c1 [Compound I-341, 7-bromo-6-chloro-N-(4-cyano-2-fluorophenyl)-1H-indole-3-sulfonamide] | < 3.16 | < 3.16
18 | N#Cc1ccc(NS(=O)(=O)c2c[nH]c3c2ccc2ccccc23)cc1 [Compound I-159, N-(4-cyanophenyl)-1H-benzo[g]indole-3-sulfonamide] | 3.16 to 31.6 | 3.16 to 31.6
19 | O=S(=O)(Nc1ccc(I)cc1F)c1c[nH]c2cc(F)ccc12 [Compound I-49, 6-fluoro-N-(2-fluoro-4-iodophenyl)-1H-indole-3-sulfonamide] | 3.16 to 31.6 | > 31.6
20 | O=S(=O)(Nc1ccc(OC(F)(F)F)cc1F)c1c[nH]c2cc(Cl)ccc12 [Compound I-276, 6-chloro-N-[2-fluoro-4-(trifluoromethoxy)phenyl]-1H-indole-3-sulfonamide] | 3.16 to 31.6 | 3.16 to 31.6
21 | Cc1ccc(NS(=O)(=O)c2c[nH]c3cc(Cl)ccc23)c(F)c1 [Compound I-56, 6-chloro-N-(2-fluoro-4-methylphenyl)-1H-indole-3-sulfonamide] | 3.16 to 31.6 | > 31.6
22 | O=S(=O)(Nc1ccc(Br)c(Cl)n1)c1c[nH]c2cc(Cl)ccc12 [Compound I-275, N-(5-bromo-6-chloropyridin-2-yl)-6-chloro-1H-indole-3-sulfonamide] | 3.16 to 31.6 | 3.16 to 31.6

The next lines start with the values.

Row | Kb (GPR17 [1]) [nM] | IC50 (GPR17 [2]) [nM] | Structure (SMILES)
23 | < 3.16 | < 3.16 | Cc1cc(F)c(NS(=O)(=O)c2c[nH]c3nc(Cl)ccc23)cc1F [Compound I-268, 6-chloro-N-(2,5-difluoro-4-methylphenyl)-1H-pyrrolo[2,3-b]pyridine-3-sulfonamide]
24 | < 3.16 | 3.16 to 31.6 | O=S(=O)(Nc1cc(OC(F)F)c(Cl)cc1F)c1c[nH]c2cc(Cl)ccc12 [Compound I-195, 6-chloro-N-[4-chloro-5-(difluoromethoxy)-2-fluorophenyl]-1H-indole-3-sulfonamide]
25 | < 3.16 | 3.16 to 31.6 | COc1c(Cl)ccc2c(S(=O)(=O)Nc3cc(F)c(Cl)cc3F)c[nH]c12 [Compound I-244, 6-chloro-N-(4-chloro-2,5-difluorophenyl)-7-methoxy-1H-indole-3-sulfonamide]
26 | 3.16 to 31.6 | 3.16 to 31.6 | COc1nc(NS(=O)(=O)c2c[nH]c3c(F)c(Cl)c(F)cc23)c(F)cc1Cl [Compound I-340, 6-chloro-N-(5-chloro-3-fluoro-6-methoxypyridin-2-yl)-5,7-difluoro-1H-indole-3-sulfonamide]
27 | < 3.16 | < 3.16 | CCOCCc1cc(F)c(NS(=O)(=O)c2c[nH]c3cc(Cl)ccc23)nc1F [Compound I-333, 6-chloro-N-[5-(2-ethoxyethyl)-3,6-difluoropyridin-2-yl]-1H-indole-3-sulfonamide]
28 | 3.16 to 31.6 | 3.16 to 31.6 | COc1nc(NS(=O)(=O)c2coc3cc(Cl)ccc23)c(F)cc1Cl [Compound I-346, 6-chloro-N-(5-chloro-3-fluoro-6-methoxypyridin-2-yl)-1-benzofuran-3-sulfonamide]
29 | 3.16 to 31.6 | 3.16 to 31.6 | COc1cc(F)c(NS(=O)(=O)c2c[nH]c3cc(Cl)ccc23)cc1F [Compound I-298, 6-chloro-N-(2,5-difluoro-4-methoxyphenyl)-1H-indole-3-sulfonamide]
30 | 3.16 to 31.6 | 3.16 to 31.6 | COc1nc(NS(=O)(=O)c2c[nH]c3c(F)c(Cl)ccc23)c(F)cc1F [Compound I-358, 6-chloro-N-(3,5-difluoro-6-methoxypyridin-2-yl)-7-fluoro-1H-indole-3-sulfonamide]
31 | 3.16 to 31.6 | 3.16 to 31.6 | O=S(=O)(Nc1nc(F)c(Cl)cc1F)c1c[nH]c2c3c(ccc12)CCC3 [Compound I-317, N-(5-chloro-3,6-difluoropyridin-2-yl)-1,6,7,8-tetrahydrocyclopenta[g]indole-3-sulfonamide]
32 | < 3.16 | < 3.16 | COCCCc1cc(F)c(NS(=O)(=O)c2c[nH]c3cc(Br)ccc23)nc1F [Compound I-323, 6-bromo-N-[3,6-difluoro-5-(3-methoxypropyl)pyridin-2-yl]-1H-indole-3-sulfonamide]
33 | > 31.6 | 3.16 to 31.6 | O=S(=O)(Nc1cc(F)c(F)cc1F)c1c[nH]c2nc(Cl)ccc12 [Compound I-223, 6-chloro-N-(2,4,5-trifluorophenyl)-1H-pyrrolo[2,3-b]pyridine-3-sulfonamide]
34 | < 3.16 | < 3.16 | O=S(=O)(Nc1cc(F)c(OC(F)F)cc1F)c1c[nH]c2cc(Cl)ccc12 [Compound I-267, 6-chloro-N-[4-(difluoromethoxy)-2,5-difluorophenyl]-1H-indole-3-sulfonamide]
35 | 3.16 to 31.6 | 3.16 to 31.6 | O=S(=O)(Nc1cc(F)c(Cl)cc1F)c1c[nH]c2cc(Cl)c(Br)cc12 [Compound I-248, 5-bromo-6-chloro-N-(4-chloro-2,5-difluorophenyl)-1H-indole-3-sulfonamide]
36 | 3.16 to 31.6 | 3.16 to 31.6 | O=S(=O)(Nc1ncc(F)cc1F)c1c[nH]c2cc(Cl)ccc12 [Compound I-302, 6-chloro-N-(3,5-difluoropyridin-2-yl)-1H-indole-3-sulfonamide]
37 | 3.16 to 31.6 | > 31.6 | COc1cc(Cl)c(F)cc1NS(=O)(=O)c1c[nH]c2c1ccc1ccccc12 [Compound I-175, N-(4-chloro-5-fluoro-2-methoxyphenyl)-1H-benzo[g]indole-3-sulfonamide]

Reference: patent US12071404B2, “Aza (indole)-, benzothiophene-, and benzofuran-3-sulfonamides” (UCB Pharma GmbH, priority 2016, dated 2024)
